Measurements reported in patent publication US20230357430A1, “RNF167 AND CASTOR1 AS NOVEL MTOR TARGETS” (UNIVERSITY OF PITTSBURGH - OF THE COMMONWEALTH SYSTEM OF …, priority 2020, published 2023).
“Also recorded” adds a separate entry of the source. Peptide text beside a SMILES is read from it. * marks the point of attachment. Cbz = O=C(OCc1ccccc1)*

Key:
[1] = tested on: CASTOR1 protein level in 293T cells; test: CASTOR1 protein level by immunoblotting after chemical treatment; format: cell-based, human; conditions: for Flag-CASTOR1 S14D protein level: 293T cells stably expressing Flag-CASTOR1 S14D; for Flag-CASTOR1 S14D protein level / Flag-CASTOR1 WT and S14A protein level: FIG. 10B-10D; for Flag-CASTOR1 WT and S14A protein level: 293T cells stably expressing Flag-CASTOR1 WT or S14A
Method: (§1) Cell culture and transfection: 293T cells obtained from ATCC (CRL-3216) were maintained in DMEM supplemented with 10% FBS. MCF7, T47D, HCC1569, and HCC202 cells were obtained from Dr. Xiaosong Wang at the University of Pittsburgh, and cultured in RPMI1640 with 10% FBS. MM cells were cultured in DMEM plus 10% FBS, while KMM cells were cultured in DMEM plus 10% FBS and 10 μg/ml hygromycin. HSAEC (FC-0016) and HLBEC (FC-0054) cells were purchased from Lifeline and cultured with the BronchiaLife™ Epithelial Airway Medium Complete Kit (Lifeline LL-0023). All cells were maintained at 37 C° in 5% CO2.
(§2) For amino acid deprivation and re-stimulation to assess mTORC1 activation, cells were incubated in EBSS medium (Thermo 24010043) for 50 min and then stimulated by adding arginine (Sigma A5131) at the indicated concentration. For ubiquitination assays, cells were deprived of FBS or arginine, or treated with 10 μM MK2206 (Selleckem S1078) overnight before immunoprecipitation and immunoblotting, or re-stimulated with FBS or arginine for 12 h before analysis.
For chemical treatments, CHX (CST 2112) or MG132 (Sigma M8699) dissolved in DMSO (VWR 97061-250) was diluted in medium to a specified concentration. Medium containing MG132 or CHX was then used to replace the original medium, and cells were cultured in the presence of MG132 for a specified time.
(§3) Immunoblotting analysis: To detect all proteins except CASTOR1, samples were separated with 4%-20% SDS-polyacrylamide gels (Genscript M00656 and M00657). To detect CASTOR1 protein, samples were resolved with 10% SDS-polyacrylamide gels (Genscript M00665 and M00666). Proteins resolved in gels were then transferred to nitrocellulose membranes (GE Healthcare 10600004), which were incubated with primary and secondary antibodies overnight and for 1 h at room temperature, respectively. The signals were developed using the Luminiata Crescendo Western HRP Substrate (EMD Millipore WBLUR0500) and SuperSignal West Femto Maximum Sensitivity Substrate (Thermo 34096) or fluorescence secondary antibodies. The images were recorded with a ChemiDoc MP Imaging System (Bio-Rad 17001402) at either Chemi, Dylight 500, DyLight 800, or StarBright B700 channels.

AKT1 = biological target: T1, AKT1 (Homo sapiens, UniProt P31749); test: In vitro kinase assay, GST-AKT1 phosphorylation of GST-CASTOR1; format: biochemical; conditions: in the presence of ATP, FIG. 2D
T1 construct: purchased Novus Biologicals 1775-KS (GST-AKT1); H00652968-P01 (GST-CASTOR1)
T1 sequence (P31749 whole entry): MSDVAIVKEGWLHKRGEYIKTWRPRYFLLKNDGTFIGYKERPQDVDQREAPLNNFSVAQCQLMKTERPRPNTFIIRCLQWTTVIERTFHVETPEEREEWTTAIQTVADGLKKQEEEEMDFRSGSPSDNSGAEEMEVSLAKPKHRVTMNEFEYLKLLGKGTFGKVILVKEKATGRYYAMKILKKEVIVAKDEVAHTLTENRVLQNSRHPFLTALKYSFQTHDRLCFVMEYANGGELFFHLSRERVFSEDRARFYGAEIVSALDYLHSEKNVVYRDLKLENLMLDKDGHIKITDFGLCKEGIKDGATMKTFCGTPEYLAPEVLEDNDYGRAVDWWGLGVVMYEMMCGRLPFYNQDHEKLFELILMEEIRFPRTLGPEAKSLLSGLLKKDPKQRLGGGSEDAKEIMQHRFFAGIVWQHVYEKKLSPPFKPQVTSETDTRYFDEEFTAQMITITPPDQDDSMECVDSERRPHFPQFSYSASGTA
Method: In vitro kinase assay: Recombinant GST-AKT1 protein (Novus Biologicals, 1775-KS) was mixed with GST-CASTOR1 protein (Novus Biologicals, H00652968-P01) in a 30 μl reaction mixture at room temperature for 1 h. The reaction mixture contained protease inhibitors, 100 mM HEPES (pH 7.4), 150 mM NaCl, 50 mM MgCl2,1 mM DTT, 0.01% NaN3, 1 mM ATP, 0.2 μg GST-AKT1 and 1 μg GST-CASTOR1.

CASTOR1 mRNA = CASTOR1 mRNA level by RT-qPCR; format: cell-based, human; conditions: 293T cells, FIG. 6K
Excerpt: Reverse transcription real-time quantitative polymerase-chain reaction (RT-qPCR): Total RNA was extracted by using TRI Reagent (Sigma T9424) based on the manufacturer's instructions. Total RNA was subjected to reverse transcription using the Maxima H Minus First Strand cDNA Synthesis Kit (Thermo K1652). SsoAdvanced™ Universal SYBR® Green Supermix Kit (Bio-Rad 172-5272) was applied for qPCR analysis. The relative mRNA levels were normalized to a house-keeping gene, which yielded 2^−ΔΔCt values. For qPCR reaction, each sample was run in triplicates with cycle threshold (Ct) values within 0.5 Ct differences among the triplicates. The primers used for gene expression were 5′[…]3′ (forward; SEQ ID NO: 22) and 5′[…]3′ (reverse; SEQ ID NO: 23) for human CASTOR1; and […] (forward; SEQ ID NO: 24) and […] (reverse; SEQ ID NO: 25) for human β-actin.

ER+ breast cancer cells = test: Endogenous CASTOR1 protein level in ER+ breast cancer cells by immunoblotting; format: cell-based, human; conditions: FIG. 13D
Method: as §1
as §3, with “Proteins resolved in gels were then transferred to nitrocellulose membranes (GE Healthcare 10600004), which were incubated with primary and secondary antibodies overnight and for 1 h at room temperature, respectively.” left out

[2] = tested on: CASTOR1 phosphorylation at S14; test: CASTOR1 phosphorylation at the AKT consensus motif (S14), immunoprecipitation and immunoblotting; format: cell-based, human; conditions: Flag-CASTOR1 in cells, FIG. 2C
Method: as §2
Immunoprecipitation. Cells were lysed in lysis buffer (50 mM Tris-HCl, with 150 mM NaCl, 1 mM EDTA, and 1% Triton X-100, pH 7.4) supplemented with a complete protease inhibitor cocktail (Thermo 78438) and phosphatase inhibitor (Thermo 78427), followed by centrifugation at 4° C. for 5 min. […]
(§4) Immunoblotting analysis: To detect all proteins except CASTOR1, samples were separated with 4%-20% SDS-polyacrylamide gels (Genscript M00656 and M00657). […] The signals were developed using the Luminiata Crescendo Western HRP Substrate (EMD Millipore WBLUR0500) and SuperSignal West Femto Maximum Sensitivity Substrate (Thermo 34096) or fluorescence secondary antibodies. The images were recorded with a ChemiDoc MP Imaging System (Bio-Rad 17001402) at either Chemi, Dylight 500, DyLight 800, or StarBright B700 channels.

mTORC1 = mTORC1 activation status (pS6K, p4EBP1) by immunoblotting; format: cell-based, human; conditions: 293T cells, FIG. 1C
Method: as §1
For amino acid deprivation and re-stimulation to assess mTORC1 activation, cells were incubated in EBSS medium (Thermo 24010043) for 50 min and then stimulated by adding arginine (Sigma A5131) at the indicated concentration. […]
as §4

[3] = biological target: T2, recombinant GST-CASTOR1 protein (Novus Biologicals, H00652968-P01) (UniProt Q8WTX7)
T2 sequence: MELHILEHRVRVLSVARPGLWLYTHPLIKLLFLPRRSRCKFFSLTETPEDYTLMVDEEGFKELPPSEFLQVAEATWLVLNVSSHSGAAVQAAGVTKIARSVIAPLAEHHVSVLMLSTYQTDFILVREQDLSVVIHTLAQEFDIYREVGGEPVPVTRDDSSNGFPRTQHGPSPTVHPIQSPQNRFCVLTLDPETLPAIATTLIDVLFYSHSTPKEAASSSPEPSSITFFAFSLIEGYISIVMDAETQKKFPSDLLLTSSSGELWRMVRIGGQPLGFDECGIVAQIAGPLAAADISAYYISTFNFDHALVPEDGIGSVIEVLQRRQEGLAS

[4] = biological target: human CASTOR1 wild type (Flag-CASTOR1 WT) (UniProt Q8WTX7)
[5] = biological target: the molecule itself; test: dimerization assay, method not described (FIG. 33)

CC(C)C[C@@H](C=O)NC(=O)[C@H](CC(C)C)NC(=O)[C@H](CC(C)C)NC(=O)OCc1ccccc1 [MG132] (Cbz-Leu-Leu-Leu-aldehyde)
accumulation of CASTOR1 protein ([1]; 293T cells co-transfected with Flag-CASTOR1 and myr-HA-AKT1, FIG. 9H): increased the accumulation of CASTOR1 protein | Flag-CASTOR1 S14D protein level [1]: increased S14D protein level | Flag-CASTOR1 WT and S14A protein level [1]: minimal effects on WT and S14A | RNF167-mediated downregulation of CASTOR1 protein ([1]; RNF167 overexpression, FIG. 7H): partially rescues | accumulation of CASTOR1 protein ([1]; cells expressing Flag-CASTOR1 and the vector control, FIG. 9H): only had a marginal effect

NC1(c2ccc(-c3nc4ccn5c(=O)[nH]nc5c4cc3-c3ccccc3)cc2)CCC1 [MK2206]
phosphorylation of purified GST-CASTOR1 by purified GST-AKT1 (AKT1): abolished | CASTOR1 protein level ([1]; 293T cells, FIG. 1C): upregulated CASTOR1 protein | CASTOR1 mRNA level (CASTOR1 mRNA): but not mRNA level | endogenous CASTOR1 protein level (ER+ breast cancer cells): enhanced; also recorded: increases the endogenous CASTOR1 protein level | specific phosphorylation of the AKT motif of CASTOR1 (S14) [2]: significantly reduced the specific phosphorylation of the AKT motif | mTORC1 activation (mTORC1): decreased mTORC1 activation

recombinant GST-AKT1 protein (Novus Biologicals, 1775-KS)
in vitro kinase assay: phosphorylation of GST-CASTOR1 [3]: efficiently phosphorylated purified GST-tagged CASTOR1 (GST-CASTOR1) recombinant protein only in the presence of ATP, which was abolished by AKT inhibitor MK2206

C[C@@H]1C[C@@H]([C@H](O)CC2CC(=O)NC(=O)C2)C(=O)[C@@H](C)C1 [CHX, cycloheximide]
Flag-CASTOR1 S14D protein level [1]: reduced | Flag-CASTOR1 WT and S14A protein level [1]: minimal effects on WT and S14A

RING finger protein 167 (RNF167)
CASTOR1 ubiquitination [4]: only RNF167 increased CASTOR1 ubiquitination

B1: human CASTOR1 wild type (Flag-CASTOR1 WT) (other, UniProt Q8WTX7 1-329, looked up)
chain: T2 sequence
notes: Expressed in cells and pulled down from lysates; also called HA-CASTOR1; cytosolic arginine sensor for mTORC1 subunit 1; not shown: N-terminal Flag tag
binding result [5]: binds
